Experimental data taken from EP1705169A2, “Triphenylalkene derivatives and their use as selective estrogen receptor modulators” (priority 1999, dated 2001).
Read-outs that look alike come from different tables or passages of the source.

Experiments:
[1] = tested on: MCF-7 cells; test: cells; settings: for inhibition at 1 µM / Emax / cytotoxicity at 10 µM: Homo sapiens, MCF7, 96 h; for inhibition at 1 µM: read-out: Antagonism at 1 µM (% of full antagonism); for Emax: read-out: Maximal Agonism (% of E2); for Kill of MCF-7 cells (in words): highest investigated concentration (10 µM); for Hormonal activity (in words): summary statement referring to Table 2; for Estrogenic and antiestrogenic action (in words): summary statement referring to Tables 2, 3 and 4
Method: For experiments involving hormone or anti-hormone treatment, the cells in exponential growth phase were precultivated in the absence of estradiol for one day. […] After the incubation period the medium was removed. The exposure to study drugs was started immediately by adding fresh medium with 5 % stripped serum. Half of the cells were grown with estradiol, half without estradiol. Study compounds (dissolved in ethanol in 0.01 M concentration and diluted with the growth medium as appropriate) were added. The final concentrations of the compounds were 1,10, and 100 nM, and 1 and 10 µM. The cells were incubated for four days.
This method allows evaluation of estrogenicity based on the ability of the compounds to stimulate the growth of the estrogen-dependent cells in the absence of estradiol. Estrogenicity was estimated by comparing the maximal growth stimulus (at any concentration) of study compound as per cent from growth stimulus by estradiol (100 % stimulus). […] At high concentrations molecules may also show toxicity. Toxicity was estimated as the fraction of dead cells (i.e. 100 % means that all cells have died during the exposure).

[2] = tested on: immature female rats; test: 3 day uterotropic assay in immature female rats (given alone and with estradiol); type: in vivo; settings: for Estrogen antagonism (% inhibition of estradiol) Given with estradiol / Uterotropic effect (% of estradiol) Given without estradiol: 3 days, immature female rats
Method: The values are given at two dose levels, low i.e. 3―5 mg/kg and high i.e. 10―50 mg/kg. Estrogenic activity can be estimated also after a 4 weeks' treatment of ovariectomized rats based on the uterine size.

[3] = read-out: Maximal Cell Kill (% fraction of dead cells), With estradiol (E2), toxicity at 10 µmol/l, 100 = all cells dead
[4] = read-out: Maximal Cell Kill (% fraction of dead cells), Without estradiol (E2), toxicity at 10 µmol/l, 100 = all cells dead

Row | SMILES | inhibition at 1 µM [1] | Emax [1] | cytotoxicity at 10 µM [1, 3] | cytotoxicity at 10 µM [1, 4] | cytotoxicity at 10 µM ([1]; read-out: Maximal Cell Kill (% fraction of dead cells)) | Estrogenic action in vivo (in words) ([2]; Table 3) | Estrogen antagonism (% inhibition of estradiol) Given with estradiol ([2]; dose 3–5 mg/kg) | Uterotropic effect (% of estradiol) Given without estradiol ([2]; dose 3–5 mg/kg) | Estrogen antagonism (% inhibition of estradiol) Given with estradiol ([2]; dose 10–50 mg/kg) | Uterotropic effect (% of estradiol) Given without estradiol ([2]; dose 10–50 mg/kg) | Estrogenic action in vitro (in words) ([1]; Table 2) | Kill of MCF-7 cells (in words) ([1]; Table 2) | Hormonal activity (in words) [1] | Estrogenic and antiestrogenic action (in words) [1]
1 | OCCOc1ccc(/C(=C(/CCCl)c2ccccc2)c2ccccc2)cc1 [FC-1271a, 2-[4-(4-chloro-1,2-diphenyl-but-1-enyl)phenoxy]ethanol, reference compound] | 21% | 23% | 80% | 50% |  |  |  |  |  |  |  |  |  | 
2 | CCCCN(C)C(=O)CCCCCCCCCC[C@@H]1Cc2cc(O)ccc2[C@H]2CC[C@]3(C)[C@@H](O)CC[C@H]3[C@H]12 [ICI 164,384, reference compound] | 100% | 9% |  |  | 100% |  |  |  |  |  |  |  |  | 
3 | CN(C)CCOc1ccc(/C(=C(/CCCl)c2ccccc2)c2ccc(F)cc2)cc1 [No. 1, (E)-(2-{4-[4-Chloro-1-(4-fluorophenyl)-2-phenylbut-1-enyl]phenoxy}ethyl)-dimethylamine] | 8% | 1% | 100% | 100% |  | weak estrogen in vivo | 26 % inhibition of estradiol | 42 % of estradiol | 31 % inhibition of estradiol | 74 % of estradiol | no estrogenic action in vitro | kill MCF-7 cells (human breast cancer cells) effectively | weak hormonal activity | 
4 | CN(C)CCOc1ccc(/C(=C(\CCCl)c2ccccc2)c2ccc(F)cc2)cc1 [No. 2, (Z)-(2-{4-[4-Chloro-1-(4-fluorophenyl)-2-phenylbut-1-enyl]phenoxy}ethyl)-dimethylamine] | 29% | 100% | 100% | 32% |  |  |  |  |  |  |  |  |  | 
5 | CN(C)CCOc1ccc(/C(=C(/CCCl)c2ccc(Cl)cc2)c2ccc(Cl)cc2)cc1 [No. 4, (E)-(2-{4-[4-Chloro-1,2-bis(4-chlorophenyl)but-1-enyl]phenoxy}ethyl)-dimethylamine] | 10% | 10% | 100% | 90% |  |  |  |  |  |  |  |  |  | 
6 | CN(C)CCOc1ccc(/C(=C(\CCCl)c2ccc(Cl)cc2)c2ccc(Cl)cc2)cc1 [No. 5, (Z)-(2-{4-[4-Chloro-1,2-bis(4-chlorophenyl)but-1-enyl]phenoxy}ethyl)-dimethylamine] | 31% | 11% | 100% | 100% |  |  |  |  |  |  |  |  |  | 
7 | OCCOc1ccc(/C(=C(/CCCl)c2ccccc2)c2ccc(F)cc2)cc1 [No. 8, (E)-2-{4-[4-Chloro-2-phenyl-1-(4-fluorophenyl)but-1-enyl]phenoxy} ethanol] | 92% | 31% | 52% | 2% |  |  |  |  |  |  |  |  |  | 
8 | OCCOc1ccc(/C(=C(/CCCl)c2ccc(Cl)cc2)c2ccc(Cl)cc2)cc1 [No. 9, (E)-2-{4-[4-Chloro-1,2-bis(4-chlorophenyl)but-1-enyl]phenoxy}ethanol] | 9% | 14% | 62% | 45% |  |  |  |  |  |  |  |  |  | 
9 | OCCOc1ccc(C(=C(CCCl)c2ccccc2)c2ccc(OCCO)cc2)cc1 [No. 16, 2-(4-{4-Chloro-1-[4-(2-hydroxyethoxy)phenyl]-2-phenyl-but-1-enyl}phenoxy)-1-ethanol] | 23% | 22% | 96% | 90% |  |  |  |  |  |  |  | kill MCF-7 cells (human breast cancer cells) effectively | weak hormonal activity | 
10 | OCCOc1ccc(/C(=C(/CCCl)c2ccccc2)c2ccc(Cl)cc2)cc1 [No. 17, (E)-2-{4-[4-Chloro-2-phenyl-1-(4-chlorophenyl)but-1-enyl]phenoxy} ethanol] | 17% | 0% | 38% | 44% |  |  |  |  |  |  |  |  |  | 
11 | OCCOc1cccc(/C(=C(/CCCl)c2ccccc2)c2ccccc2)c1 [No. 18, (Z)-2-[3-(4-Chloro-1,2-diphenyl-but-1-enyl)phenoxy]ethanol] | 1% |  | 40% | 10% |  |  |  |  |  |  |  |  |  | weak estrogenic and no antiestrogenic action
12 | CN(C)CCOc1ccc(/C(=C(/CCCl)c2ccc(Cl)cc2)c2ccccc2)cc1 [No. 23, (Z)-(2-{4-[4-Chloro-2-(4-chlorophenyl)-1-phenylbut-1-enyl]phenoxy}ethyl)-dimethylamine] | 5% | 14% | 93% | 89% |  |  |  |  |  |  |  |  |  | 
13 | CN(C)CCOc1ccc(/C(=C(\CCCl)c2ccc(Cl)cc2)c2ccccc2)cc1 [No. 24, (E)-(2-{4-[4-Chloro-2-(4-chlorophenyl)-1-phenylbut-1-enyl]phenoxy}ethyl)-dimethylamine] | 4% | 46% | 98% | 89% |  |  |  |  |  |  |  |  |  | 
14 | CN(C)CCOc1ccc(/C(=C(/CCCl)c2ccc(F)cc2)c2ccccc2)cc1 [No. 25, (Z)-(2-{4-[4-Chloro-2-(4-fluorophenyl)-1-phenylbut-1-enyl]phenoxy}ethyl)-dimethylamine] | 6% | 17% | 27% | 42% |  |  |  |  |  |  |  |  |  | weak estrogenic and no antiestrogenic action
15 | COc1ccc(/C(=C(\CCCl)c2ccc(Cl)cc2)c2ccc(OCCN(C)C)cc2)cc1 [No. 26, (Z)-(2-{4-[4-Chloro-2-(4-chlorophenyl)-1-(4-methoxyphenyl)but-1-enyl]phenoxy}-ethyl)dimethylamine] | 11% | 0% | 98% | 97% |  |  |  |  |  |  |  | kill MCF-7 cells (human breast cancer cells) effectively | weak hormonal activity | 
16 | COc1ccc(/C(=C(/CCCl)c2ccc(Cl)cc2)c2ccc(OCCN(C)C)cc2)cc1 [No. 27, (E)-(2-{4-[4-Chloro-2-(4-chlorophenyl)-1-(4-methoxyphenyl)but-1-enyl]phenoxy}-ethyl)dimethylamine] | 5% | 0% | 100% | 99% |  |  |  |  |  |  |  | kill MCF-7 cells (human breast cancer cells) effectively | weak hormonal activity | 
17 | OCCOc1ccc(/C(=C(/CCCl)c2ccccc2)c2cccc(O)c2)cc1 [No. 34, (E)-3-{4-Chloro-1-[4-(2-hydroxyethoxy)phenyl]-2-phenyl-but-1-enyl}-phenol] | 0% | 0% | 0% | 0% |  |  |  |  |  |  |  |  |  | 
18 | OCCCOc1ccc(/C(=C(/CCCl)c2ccccc2)c2ccccc2)cc1 [No. 35, (Z)-3-[4-(4-Chloro-1,2-diphenylbut-1-enyl)phenoxy]propan-1-ol] | 14% |  | 50% | 50% |  |  | 35 % inhibition of estradiol | 43 % of estradiol | 32 % inhibition of estradiol | 66 % of estradiol |  |  |  | 
19 | COc1ccc(/C(=C(\CCCl)c2ccc(Cl)cc2)c2ccc(OCCO)cc2)cc1 [No. 37, (Z)-2-{4-[4-Chloro-2-(4-chlorophenyl)-1-(4-methoxyphenyl)but-1-enyl]-phenoxy} ethanol] | 0% | 4% | 41% | 39% |  |  |  |  |  |  |  |  |  | 
20 | OCCOc1ccc(/C(=C(/CCCl)c2ccc(O)cc2)c2ccccc2)cc1 [No. 42, (Z)-4-{1-(2-Chloroethyl)-2-[4-(2-hydroxyethoxy)phenyl]-2-phenylvinyl}phenol] | 13% | 9% | 54% | 23% |  |  |  |  |  |  |  |  |  | 
21 | OCCOc1ccc(/C(=C(\CCCl)c2ccc(O)cc2)c2ccccc2)cc1 [No. 43, (E)-4-{1-(2-Chloroethyl)-2-[4-(2-hydroxyethoxy)phenyl]-2-phenylvinyl}phenol] | 6% | 78% | 22% | 80% |  |  |  |  |  |  |  |  |  | 
22 | CC/C(=C(\c1ccccc1)c1ccc(OCCN(C)C)cc1)c1ccccc1 [Tamoxifen, reference compound] | 43% | 31% | 100% | 100% |  |  | 51 % inhibition of estradiol | 44 % of estradiol | 58 % inhibition of estradiol | 51 % of estradiol |  |  |  | 
